We go through 63 compounds from ChEMBL document CHEMBL1909294, “Translating clinical findings into knowledge in drug safety evaluation--drug induced liver injury prediction system (DILIps)” (PLoS Comput Biol, 2011).

In data set [1] the test system is Hepatotoxicity.
Data set [2] has as its system Hepatotoxicity. The source holds these as a separate data set.
The subject of data set [3] is Hepatotoxicity. This is another data set of the same source.
Data set [4] deals with Hepatotoxicity. This is another data set of the same source.
In data set [5] the test system is Hepatotoxicity. The source holds these as a separate data set.
Data set [6] relates to Hepatotoxicity. This is another data set of the same source.
The subject of data set [7] is Hepatotoxicity. The source holds these as a separate data set.
Data set [8] concerns Hepatotoxicity. The source holds these as a separate data set.
Data set [9] concerns Hepatotoxicity. The source holds these as a separate data set.
The test system of data set [10] is Hepatotoxicity. The source holds these as a separate data set.
Data set [11] has as its system Hepatotoxicity. This is another data set of the same source.
In data set [12] the test system is Hepatotoxicity. This is another data set of the same source.
In data set [13] the test system is Hepatotoxicity. The source holds these as a separate data set.
In data set [14] the test system is Hepatotoxicity. This is another data set of the same source.
The subject of data set [15] is Hepatotoxicity. The source holds these as a separate data set.
Data set [16] deals with Hepatotoxicity. This is another data set of the same source.
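For HepSE Combined Scores in this document: combined hepatic side effect score as listed in the training data of the Drug Induced Liver Injury Prediction System (DILIps).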
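For HepSE bilirubinemia in this document: bilirubinemia hepatic side effect score drawn from the DILIps training data, a prediction system for drug-induced liver injury; call rule not given here.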
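For HepSE cholecystitis in this document: Cholecystitis-related hepatic side effect score drawn from the DILIps (drug-induced liver injury prediction) training data set; call rule not given here.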
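For HepSE cholelithiasis in this document: hepatic side effect score for cholelithiasis, drawn from the DILIps training data for predicting drug-induced liver injury; call rule not given here.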
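For HepSE cirrhosis in this document: cirrhosis hepatic side effect score taken from the DILIps (drug-induced liver injury prediction) training set; call rule not given here.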
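For HepSE elevated liver function tests in this document: hepatic side effect score for raised liver function tests, as recorded in the DILIps training set used for predicting drug-induced liver injury.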
For HepSE hepatic failure in this document: call rule not given here.
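For HepSE hepatic necrosis in this document: score of hepatic side effects for hepatic necrosis, drawn from the training data of DILIps, a prediction system for drug-induced liver injury; call rule not given here.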
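For HepSE hepatitis in this document: Hepatitis-related hepatic side effect score taken from the training data of DILIps, a prediction system for drug-induced liver injury; call rule not given here.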
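For HepSE hepatomegaly in this document: hepatic side effect score for hepatomegaly, taken from the training set of the DILIps drug-induced liver injury prediction system; call rule not given here.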
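For HepSE jaundice in this document: Jaundice-related hepatic side-effect score drawn from the training data of the DILIps (drug-induced liver injury prediction system); call rule not given here.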
For HepSE liver disease in this document: call rule not given here.
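For HepSE liver fatty in this document: hepatic side effect score for fatty liver, taken from the DILIps training set for predicting drug-induced liver injury; call rule not given here.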
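For HepSE liver function tests abnormal in this document: hepatic side effect score taken from the DILIps (drug-induced liver injury prediction system) training data, here covering abnormal liver function test findings.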

Turning to `CC(N)C(=O)OC(C)(C)Cc1ccc(Cl)cc1` (configuration not stated) [ALAPROCLATE], the DILI positive/negative in [1] came to 1.
With `O=C(COc1ccc(Cl)cc1)N1CCN(Cc2ccc3c(c2)OCO3)CC1` [FIPEXIDE], the DILI positive/negative in [1] and in data set [2] was 1 in each case.
As for `CCN(CC)CCOc1ccc(C(=C(Cl)c2ccccc2)c2ccccc2)cc1` [CLOMIPHENE], in [3], the HepSE_bilirubinemia is recorded as 0. In [4], this compound had a HepSE_cholecystitis of 0. In data set [5], this compound came in with a HepSE_cholelithiasis of 0. Further, the HepSE_cirrhosis in data set [6] amounted to 0. Moreover, the “HepSE_elevated liver function tests” value in data set [7] came to 0. The compound further gave a HepSE_hepatic failure in data set [8] of 0. In [9], this compound had a HepSE_hepatic necrosis of 0. Besides, in [10], the HepSE_hepatitis is 1. The compound further yielded a HepSE_hepatomegaly in [11] of 0. The same compound showed a HepSE_jaundice in data set [12] of 0. The compound also came in with a HepSE_liver disease in [13] of 0. In [14], this compound had a HepSE_liver fatty of 0. For the same compound, the “HepSE_liver function tests abnormal” value in data set [15] is on record as 0. Besides, the “HepSE_Combined Scores” value in data set [16] was 1. Further, the DILI positive/negative in data set [2] is listed as 1.
Regarding `Cc1ccc(Nc2c(F)cccc2Cl)c(CC(=O)O)c1` [LUMIRACOXIB], in data set [1], the DILI positive/negative is listed as 1.
`CCCCN1C(=O)[C@@H]([C@H](O)C2CCCCC2)NC(=O)C12CCN(Cc1ccc(Oc3ccc(C(=O)O)cc3)cc1)CC2` [APLAVIROC] returned a DILI positive/negative in data set [1] of 1.
Regarding `CONC(=N)c1ccc(-c2ccc(-c3ccc(C(=N)NOC)cc3)o2)cc1` [PAFURAMIDINE], in data set [1], the DILI positive/negative turned out to be 1.
In [1], `O=C(O)CCCCCCNC1c2ccccc2CCc2ccccc21` [AMINEPTINE] gave a DILI positive/negative of 1.
Still for that read-out and setting: under `C[C@@H](Cc1ccccc1)N(C)Cc1ccccc1` [BENZPHETAMINE] stands 0; under `C[C@H]1[C@H](c2ccccc2)OCCN1C` [PHENDIMETRAZINE], 0.
In turn, `CC1=NN(c2ccc(C)c(C)c2)C(=O)/C1=N\Nc1cccc(-c2cccc(C(=O)O)c2)c1O` [ELTROMBOPAG] displayed a DILI positive/negative in data set [1] (Liver) of 1.
On to `CCC1(c2ccccc2)C(=O)NC(=O)NC1=O.CCCCCOC(CN1C(=O)N(CC(COCCCC)OC(N)=O)C(=O)C(CC)(c2ccccc2)C1=O)OC(N)=O.CCCCOCC(CN1C(=O)NC(=O)C(CC)(c2ccccc2)C1=O)OC(N)=O` (configuration not stated) [TETRABAMATE], for which the DILI positive/negative in [1] is given as 1.
Same read-out and setting: the figure for `CCOC(Nc1ccc(C(=O)O)cc1)C(=O)c1ccc(-c2ccccc2)cc1` (configuration not stated) [XENAZOIC ACID] is 1.
For the compound `NC(=O)C1CCN(CCCN2c3ccccc3Sc3ccc(Cl)cc32)CC1` [PIPAMAZINE], in [1], the DILI positive/negative was 1.
In [1], `CC[N+](C)(C)c1cccc(O)c1.[Br-]` [EDROPHONIUM BROMIDE] showed a DILI positive/negative of 0.
With `COc1ccc2c(C(=O)c3ccc(Cl)cc3)c(C)n(CC(=O)O)c2c1` [CLOMETACIN], the DILI positive/negative in data set [1] worked out at 1.
Compound `CN(C)CCCC1c2ccccc2Nc2ccc(Cl)cc21` (configuration not stated) [CLOMACRAN] registered a DILI positive/negative in data set [1] of 1.
As for `C=CCOc1ccc(CC(=O)O)cc1Cl` [ALCLOFENAC], the DILI positive/negative in data set [1] (Liver) came out at 1.
For `C[C@H](N)C(=O)N[C@@H](C)C(=O)N[C@H]1[C@@H]2CN(c3nc4c(cc3F)c(=O)c(C(=O)O)cn4-c3ccc(F)cc3F)C[C@@H]21` [ALATROFLOXACIN], the DILI positive/negative in [1] is 1.
For `O=C(O)COc1nn(Cc2ccccc2)c2ccccc12` [BENDAZAC], the DILI positive/negative in [1] (Liver) was found to be 1.
For the compound `NC(=O)NS(=O)(=O)c1ccc(N)cc1` [SULFACARBAMIDE], the DILI positive/negative in data set [1] was 1.
As to `CCc1oc2ccccc2c1C(=O)c1cc(I)c(O)c(I)c1` [BENZIODARONE], the DILI positive/negative in data set [1] worked out at 1.
On the same count and under the same terms, under `O=C(CCNNC(=O)c1ccncc1)NCc1ccccc1` [NIALAMIDE] stands 1; under `CO[C@@H]1O[C@H](CO)[C@H](O)[C@H](O[C@@H]2O[C@@H](C(=O)O)[C@@H](OC)[C@H](O)[C@H]2O)[C@H]1NC(C)=O`, 1; under `COc1ccc2c(C(=S)N(C)CC(=O)O)cccc2c1C(F)(F)F` [TOLRESTAT], 1.
On to COLISTIMETHATE, for which, in [1], the DILI positive/negative was 0.
Regarding `O=C(c1cc(O)c(O)c(O)c1)c1ccc(O)c(O)c1O` [EXIFONE], the DILI positive/negative in data set [1] is 1.
Consider `NC(N)=Nc1nc(CSCCN/C=N/S(=O)(=O)c2ccc(Br)cc2)cs1` [EBROTIDINE], for which, in data set [1], the DILI positive/negative is 1.
As for `Cc1cc(Br)c(O)c2ncccc12` [TILBROQUINOL], the DILI positive/negative in data set [1] was 1.
As to `CN1c2c(oc(=O)n(-c3ccccn3)c2=O)-c2ccccc2S1(=O)=O` [DROXICAM], the DILI positive/negative in data set [1] was 1.
On to `CN1CCCC(CN2c3ccccc3Sc3ccccc32)C1` (configuration not stated) [MEPAZINE], for which, in data set [1], the DILI positive/negative was 1.
`CCCCCCCCNC(C)C(O)c1ccc(SC(C)C)cc1` (configuration not stated) [SULOCTIDIL] showed a DILI positive/negative in data set [1] of 1.
The compound `CC(COc1ccccc1)NN` (configuration not stated) [PHENOXYPROPAZINE] showed a DILI positive/negative in data set [1] of 1.
`O=C(O)Cc1csc(-c2ccc(Cl)cc2)n1` [FENCLOZIC ACID] gave a DILI positive/negative in data set [1] of 1.
On to `Nc1nc(Cl)nc2c1ncn2[C@H]1C[C@H](O)[C@@H](CO)O1` [CLADRIBINE], for which the HepSE_bilirubinemia in data set [3] worked out at 0. In [4], this compound returned a HepSE_cholecystitis of 0. This compound came in with a HepSE_cholelithiasis in data set [5] of 0. The compound also gave a HepSE_cirrhosis in data set [6] of 0. For the same compound, the “HepSE_elevated liver function tests” value in [7] turned out to be 0. The compound further gave a HepSE_hepatic failure in data set [8] of 0. Further, the HepSE_hepatic necrosis in data set [9] is on record as 0. This compound yielded a HepSE_hepatitis in data set [10] of 0. Moreover, in [11], the HepSE_hepatomegaly stood at 0. Besides, in [12], the HepSE_jaundice is 0. This compound registered a HepSE_liver disease in [13] of 0. In data set [14], this compound gave a HepSE_liver fatty of 0. Besides, in data set [15], the “HepSE_liver function tests abnormal” value came to 0. Besides, the “HepSE_Combined Scores” value in [16] came to 0. In data set [2], this compound yielded a DILI positive/negative of 0.
In data set [1], `Cc1nc([N+](=O)[O-])cn1-c1ccc([N+](=O)[O-])cc1` [NITREFAZOLE] yielded a DILI positive/negative of 1.
In data set [1], `CC(=O)Oc1ccc(C(=C2CCCCC2)c2ccc(OC(C)=O)cc2)cc1` [CYCLOFENIL] registered a DILI positive/negative of 1.
On to `CCCCNc1ccc(C(=O)OCCOCCOCCOCCOCCOCCOCCOCCOCCOC)cc1` [BENZONATATE], for which the DILI positive/negative in data set [1] stood at 0.
In data set [1], `NCCO` [MONOETHANOLAMINE] had a DILI positive/negative of 0.
For the compound `CCc1oc2ccccc2c1C(=O)c1ccc(O)cc1` [BENZARONE], the DILI positive/negative in data set [1] is given as 1.
As to `CN1C(=O)CCS(=O)(=O)C1c1ccc(Cl)cc1` (configuration not stated) [CHLORMEZANONE], in data set [1], the DILI positive/negative turned out to be 1.
Consider `CC(=O)Oc1ccc(C2(c3ccc(OC(C)=O)cc3)C(=O)N(C(C)=O)c3ccccc32)cc1` [TRIACETYLDIPHENOLISATIN], for which the DILI positive/negative in data set [1] was determined as 1.
In data set [1] (Liver), `CN(C)Cc1ccc(CSCCN/C(=C\[N+](=O)[O-])NCc2ccc3c(c2)OCO3)o1` [NIPEROTIDINE] came in with a DILI positive/negative of 1.
`O=C1Nc2ccccc2C1(c1ccc(O)cc1)c1ccc(O)cc1` [OXYPHENISATINE]: in [1], the DILI positive/negative worked out at 1.
In the case of `CC(C)Nc1ncccn1` [ISAXONINE], in data set [1], the DILI positive/negative amounted to 1.
`O=C1NC(=O)C(O)(O)C(=O)N1` came in with a DILI positive/negative in data set [2] of 0.
`COc1ccc(OC)c(C(O)C(C)N)c1.Cl` (configuration not stated) [METHOXAMINE HYDROCHLORIDE] showed a DILI positive/negative in [2] of 0.
`CC[N+](CC)(CC)CCOc1cccc(OCC[N+](CC)(CC)CC)c1OCC[N+](CC)(CC)CC.[I-].[I-].[I-]` [GALLAMINE TRIETHIODIDE] registered a DILI positive/negative in data set [2] of 0.
In the case of `Cc1nnc(C(C)C)n1[C@@H]1C[C@H]2CC[C@@H](C1)N2CC[C@H](NC(=O)C1CCC(F)(F)CC1)c1ccccc1` [MARAVIROC], the DILI positive/negative in [1] came to 1.
`CS(=O)(=O)CCNCc1ccc(-c2ccc3ncnc(Nc4ccc(OCc5cccc(F)c5)c(Cl)c4)c3c2)o1` [LAPATINIB] returned a DILI positive/negative in [1] of 1.
For `Cl.Nc1ccc(/N=N/c2ccccc2)c(N)n1` [PHENAZOPYRIDINE HYDROCHLORIDE], the DILI positive/negative in data set [2] was 1.
The compound `C=CC(O)CC#N` (configuration not stated) returned a DILI positive/negative in data set [2] of 0.
Turning to `Nc1ccc(S(=O)(=O)Nc2nccs2)cc1` [SULFATHIAZOLE], in [1] (Liver), the DILI positive/negative came out at 1.
In data set [1], `CC(NN)c1ccccc1` (configuration not stated) [MEBANAZINE] came in with a DILI positive/negative of 1.
The compound `CCO[C@@H]1OC(=O)C[C@@H]1NC(=O)[C@@H]1CCCN2C(=O)CC[C@H](NC(=O)c3nccc4ccccc34)C(=O)N12` displayed a DILI positive/negative in data set [1] of 1.
As to `CN1CCC(Nc2ncc3ncnc(Nc4ccc(F)c(Cl)c4)c3n2)CC1` [FALNIDAMOL], in [1] (Liver), the DILI positive/negative was 1.
Turning to `Cc1cc(NC(=O)C2=C(O)c3ccccc3S(=O)(=O)N2C)no1` [ISOXICAM], in data set [2], the DILI positive/negative is recorded as 0.
With `CN(C)C/C=C(/c1ccc(Br)cc1)c1cccnc1` [ZIMELDINE], in data set [1], the DILI positive/negative was determined as 1.
The compound `O=c1[nH]c(=O)n([C@H]2C[C@H](O)[C@@H](CO)O2)cc1F` [FLOXURIDINE] showed a DILI positive/negative in [2] of 1.
In data set [2], `CC(N)C(O)c1ccccc1.Cl` (configuration not stated) [PHENYLPROPANOLAMINE HYDROCHLORIDE] yielded a DILI positive/negative of 0.
Same read-out and setting: under `CCOC(=O)C1(c2ccccc2)CCN(CCc2ccc(N)cc2)CC1.Cl` [ANILERIDINE HYDROCHLORIDE] stands 0; under `CN[C@@H](C)[C@@H](O)c1ccccc1.Cl` [PSEUDOEPHEDRINE HYDROCHLORIDE], 0.
Compound `COc1cccc2c1[C@@H]1CN(CCCCn3c(=O)[nH]c4c(sc5ncc(-c6ccccc6)nc54)c3=O)C[C@@H]1CO2` [FIDUXOSIN] showed a DILI positive/negative in data set [1] of 1.
Compound `CCOC(=O)CN[C@@H](C(=O)N1CC[C@H]1C(=O)NCc1ccc(/C(N)=N\O)cc1)C1CCCCC1` [XIMELAGATRAN] displayed a DILI positive/negative in data set [1] of 1.
